Measured values from article PMC6600574 (Molecules, 2019).

Tests used:
[1] = molecular target: T1, CYP 19A1 (aromatase) (Homo sapiens, UniProt P11511); assay: Aromatase inhibition assay, tritiated water release, placental microsomes; type: in vitro ADME; conditions: CYP 19A1, substrate androstendione, verbascoside 4-500 µM
T1 construct: from tissue; host or cells: human placental microsomes
T1 sequence (P11511 1-503): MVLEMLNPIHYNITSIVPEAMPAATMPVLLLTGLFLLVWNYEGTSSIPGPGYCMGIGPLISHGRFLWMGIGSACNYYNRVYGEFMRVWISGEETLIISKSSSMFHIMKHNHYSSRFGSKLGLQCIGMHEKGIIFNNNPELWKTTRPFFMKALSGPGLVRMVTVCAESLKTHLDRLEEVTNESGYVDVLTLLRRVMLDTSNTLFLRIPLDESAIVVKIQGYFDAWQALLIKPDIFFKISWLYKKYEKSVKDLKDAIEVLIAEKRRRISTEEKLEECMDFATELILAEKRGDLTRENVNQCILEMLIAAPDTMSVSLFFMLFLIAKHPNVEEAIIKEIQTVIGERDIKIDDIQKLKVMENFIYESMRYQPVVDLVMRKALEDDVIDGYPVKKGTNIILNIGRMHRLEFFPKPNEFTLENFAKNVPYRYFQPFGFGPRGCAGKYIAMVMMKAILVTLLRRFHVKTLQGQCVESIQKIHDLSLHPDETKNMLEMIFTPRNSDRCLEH
Protocol: The relative remaining aromatase activity was calculated by measuring the tritiated water (^3H2O) formed from the aromatization of ^3H-Androst-4-ene,3,17-dione. […] Twenty percent NADPH regenerative system was added to initiate the reaction. Reactions were terminated by the addition of 33% trichloroacetic acid. The supernatant was investigated for tritiated water formed in a scintillation mixture (Optiphase Hisafe 2, Perkin Elmer) using a Wallac microbeta 1450 TriLux liquid scintillation and luminescence counter (PerkinElmer).

[2] = DPPH radical scavenging assay; type: biochemical; conditions: DPPH in ethanol, 30 min
Protocol: Ascorbic acid was serially diluted to a concentration range of 0.78–100 µg/mL. Ethanol (10%) was used as a blank. Ninety microliters of a […] DPPH (2,2-diphenyl-1-picrylhydrazyl) in ethanol were added to each well. The plates were incubated for 30 min and covered in a layer of foil. Color controls (negative controls) were prepared in the exact same manner as above, but distilled water was added to each well instead of DPPH. The absorbances were measured at a wavelength of 515 nm using a BIO-TEK Power-Wave XS multiplate reader (BIO-TEK Instruments, Winooski, VT, USA). From the absorbances an IC50 value was determined.

[3] = molecular target: T2, CYP 1A1 (placental microsomes) (Homo sapiens, UniProt P04798); assay: Inhibition of placental microsome-catalyzed CYP oxidation; type: in vitro ADME; conditions: CYP 1A1, substrate TFD024, placental microsomes
T2 construct: from tissue; host or cells: human placental microsomes
T2 sequence (P04798 1-512): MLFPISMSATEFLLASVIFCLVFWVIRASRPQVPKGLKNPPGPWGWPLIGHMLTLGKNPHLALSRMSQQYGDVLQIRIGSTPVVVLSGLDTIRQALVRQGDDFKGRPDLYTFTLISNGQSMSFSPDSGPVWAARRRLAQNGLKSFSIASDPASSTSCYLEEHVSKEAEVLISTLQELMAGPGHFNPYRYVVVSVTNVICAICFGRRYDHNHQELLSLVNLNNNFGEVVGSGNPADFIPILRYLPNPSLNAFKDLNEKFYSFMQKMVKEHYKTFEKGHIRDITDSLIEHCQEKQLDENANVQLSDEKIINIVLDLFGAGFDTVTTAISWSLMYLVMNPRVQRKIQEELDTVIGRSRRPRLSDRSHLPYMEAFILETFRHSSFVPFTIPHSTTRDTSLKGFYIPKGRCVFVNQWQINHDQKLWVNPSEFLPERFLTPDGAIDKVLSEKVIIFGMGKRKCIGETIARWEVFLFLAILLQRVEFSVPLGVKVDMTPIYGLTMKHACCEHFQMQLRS
Protocol: Incubations were carried out in a total volume of 100 µl of 100 mM Tris-HCl buffer (pH 7.4) in all black, flat-bottom Costar 96-well plates (Corning Incorporated, Corning, NY, USA). […] The samples were then preincubated at 37 °C for 10 min. The reactions were initiated by the addition of NADPH, and 0–10 µM 7-hydroxycoumarin was used as the standard. The fluorescent signal was measured with a Victor^2 1420 multilabel plate counter (PerkinElmer Lifesciences Wallac, Turku, Finland) with excitation and emission wavelengths of 405 and 460 nm, respectively. Fluorescence was monitored every 2 min for 40 min from where the concentration was calculated at the various time points. From these, oxidation rates (µM/min) and the relative remaining activity of the sample at different concentrations were calculated. The data were fit to sigmoidal dose-response curves with nonlinear regression, and IC50 values (the concentration at which the sample reduced the metabolism of the CYP substrate by 50%) were determined. […] This was analyzed using nonlinear equations in Graph Pad Prism, which produced IC50 values and its 95% confidence interval as the results.

SMILES: C[C@@H]1O[C@@H](O[C@@H]2[C@@H](O)[C@H](OCCc3ccc(O)c(O)c3)O[C@H](CO)[C@H]2OC(=O)/C=C/c2ccc(O)c(O)c2)[C@H](O)[C@H](O)[C@H]1O [Verbascoside]
- Microsomal IC50 (µM) with 95% Confidence Intervals [1]: No inhibition
- Microsomal IC50 (µM) with 95% Confidence Intervals ([1]; listed as verbascoside): did not inhibit
- IC50 [2]: 2.5 ± 0.02 µM
- Microsomal IC50 (µM) with 95% Confidence Intervals [3]: did not inhibit
- IC50 ([3]; read-out: Microsomal IC50 (µM) with 95% Confidence Intervals): 350 µM
